In ChEMBL document CHEMBL1124628, “Topically active carbonic anhydrase inhibitors. 1. O-acyl derivatives of 6-hydroxybenzothiazole-2-sulfonamide” (J Med Chem, 1989):
pIC50: −log10 of the molar value.

Legend:
[1] = In vitro susceptibility to nucleophilic attack by reduced glutathione at 37 degree C and at pH 7.4; format: ADME
[2] = Cleavage by corneal esterase at 37 degree C and at pH 7.4; format: ADME, tissue-based, Cornea
Oryctolagus cuniculus [3] = species: Oryctolagus cuniculus; assay: Change in intraocular pressure in Albino rabbit when 1% suspension of compound bilaterally instilled in a single dose of 50 microL determined by recovery rate assay; format: functional, Eye
Oryctolagus cuniculus [4] = species: Oryctolagus cuniculus; assay: Change in intraocular pressure in Albino rabbit when 10% of compound suspension bilaterally instilled in 3 doses of 20, 15 and 15 microL at 5 minute intervals determined by recovery rate assay; format: functional, Eye
Oryctolagus cuniculus [5] = species: Oryctolagus cuniculus; assay: Change in intraocular pressure in Albino rabbit when 2% suspension of compound bilaterally instilled in a single dose of 50 microL determined by recovery rate assay; format: functional, Eye
Oryctolagus cuniculus [6] = species: Oryctolagus cuniculus; assay: Change in intraocular pressure in Albino rabbit when 5% of compound suspension bilaterally instilled in 3 doses of 20, 15 and 15 microL at 5 minute intervals determined by recovery rate assay; format: functional, Eye
Oryctolagus cuniculus [7] = assay: Maximum decrease in intraocular pressure in Albino rabbit during 5 hours observation period after topical instillation of 0.5% suspension in alpha-Chymotrypsin assay; format: functional, Eye
Oryctolagus cuniculus [8] = assay: Maximum decrease in intraocular pressure in Albino rabbit during 5 hours observation period after topical instillation of 1% suspension in alpha-Chymotrypsin assay; format: functional, Eye
Oryctolagus cuniculus [9] = assay: Maximum decrease in intraocular pressure in Albino rabbit during 5 hours observation period after topical instillation of 5% suspension in alpha-Chymotrypsin assay; format: functional, Eye
Oryctolagus cuniculus [10] = species: Oryctolagus cuniculus; assay: Corneal penetration rate constant (k) for excised denuded cornea of albino rabbit; format: functional
Oryctolagus cuniculus [11] = species: Oryctolagus cuniculus; assay: Corneal penetration rate constant (k) for excised intact cornea of albino rabbit; format: functional
Carbonic anhydrase 2 [12] = biological target: T1, Carbonic anhydrase 2 (Homo sapiens, UniProt P00918)
Description: In vitro inhibition of human Carbonic Anhydrase II

Oryctolagus cuniculus [13] = assay: Maximum decrease in intraocular pressure in Albino rabbit during 5 hours observation period after topical instillation of 0.5% suspension; format: functional, Eye
Oryctolagus cuniculus [14] = assay: Maximum decrease in intraocular pressure in Albino rabbit during 5 hours observation period after topical instillation of 1% suspension; format: functional, Eye
Oryctolagus cuniculus [15] = species: Oryctolagus cuniculus; assay: Change in intraocular pressure in Albino rabbit when 2% of compound suspension instilled in a single dose of 50 microL determined by recovery rate assay
Carbonic anhydrase 2 [16] = biological target: T1, Carbonic anhydrase 2; assay: In vitro inhibitory activity against human Carbonic anhydrase II; conditions: read-out: I50
Oryctolagus cuniculus [17] = species: Oryctolagus cuniculus; assay: % change in intraocular pressure in Albino rabbit when 10% suspension bilaterally instilled in 3 divided doses of 20, 15 and 15 microL at 5 minute intervals determined by recovery rate assay; format: functional
Oryctolagus cuniculus [18] = assay: Maximum decrease in intraocular pressure in Albino rabbit during 5 hours observation period after topical instillation of 5% suspension; format: functional, Eye

## CC(C)(C)C(=O)Oc1ccc2nc(S(N)(=O)=O)sc2c1
[1]
  Reaction: 50%
[2]
  half-life: 38 min
Oryctolagus cuniculus [3]
  Change: -16%
Oryctolagus cuniculus [4]
  Change: -47%
Oryctolagus cuniculus [5]
  Change: -30%
Oryctolagus cuniculus [6]
  Change: -41%
Oryctolagus cuniculus [7]
  Pressure: -6.5 mmHg
Oryctolagus cuniculus [8]
  Pressure: -8.2 mmHg
Oryctolagus cuniculus [9]
  Pressure: -9.2 mmHg

## COC(C)(C)C(=O)Oc1ccc2nc(S(N)(=O)=O)sc2c1
[2]
  half-life: 36 min
Oryctolagus cuniculus [10]
  K: 0.019 h⁻¹
Oryctolagus cuniculus [11]
  K: 0.0222 h⁻¹
Carbonic anhydrase 2 [12]
  pIC50: 8.92

## COCCOC(C)(C)C(=O)Oc1ccc2nc(S(N)(=O)=O)sc2c1
[2]
  half-life: 72 min
Oryctolagus cuniculus [10]
  K: 0.015 h⁻¹
Oryctolagus cuniculus [11]
  K: 0.0097 h⁻¹
Carbonic anhydrase 2 [12]
  pIC50: 8.85

## CC(C)COC(=O)Oc1ccc2nc(S(N)(=O)=O)sc2c1
[1]
  Reaction: 50%
[2]
  half-life: 7 min
Oryctolagus cuniculus [10]
  K: 0.0212 h⁻¹
Oryctolagus cuniculus [11]
  K: 0.0812 h⁻¹
Oryctolagus cuniculus [4]
  Change: -46%
Oryctolagus cuniculus [6]
  Change: -54%
Oryctolagus cuniculus [13]
  Pressure: -5.7 mmHg
Oryctolagus cuniculus [14]
  Pressure: -6.7 mmHg
Carbonic anhydrase 2 [12]
  pIC50: 8.66
Oryctolagus cuniculus [15]
  Change: -22%

## CCCC(=O)Oc1ccc2nc(S(N)(=O)=O)sc2c1
[2]
  half-life: 6 min
Oryctolagus cuniculus [10]
  K: 0.0202 h⁻¹
Oryctolagus cuniculus [11]
  K: 0.054 h⁻¹
Oryctolagus cuniculus [3]
  Change: -25%
Oryctolagus cuniculus [4]
  Change: -50%
Oryctolagus cuniculus [5]
  Change: -30%
Oryctolagus cuniculus [6]
  Change: -46%
Oryctolagus cuniculus [7]
  Pressure: -5.5 mmHg
Oryctolagus cuniculus [8]
  Pressure: -6.8 mmHg
Carbonic anhydrase 2 [12]
  pIC50: 8.49

## CN(C)OS(=O)(=O)c1ccc2nc(S(N)(=O)=O)sc2c1
Carbonic anhydrase 2 [12]
  pIC50: 8.92

## NS(=O)(=O)c1nc2ccc(OC(=O)CC3CCCC3)cc2s1
Carbonic anhydrase 2 [16]
  pIC50: 8.22

## COCC(=O)Oc1ccc2nc(S(N)(=O)=O)sc2c1
Carbonic anhydrase 2 [12]
  pIC50: 8.46

## CC(C)C(=O)Oc1ccc2nc(S(N)(=O)=O)sc2c1
[1]
  Reaction: 50%
[2]
  half-life: 9 min
Oryctolagus cuniculus [10]
  K: 0.0162 h⁻¹
Oryctolagus cuniculus [11]
  K: 0.045 h⁻¹
Oryctolagus cuniculus [3]
  Change: -38%
Oryctolagus cuniculus [4]
  Change: -30%
Oryctolagus cuniculus [5]
  Change: -48%
Oryctolagus cuniculus [6]
  Change: -33%
Oryctolagus cuniculus [7]
  Pressure: -9.3 mmHg
Oryctolagus cuniculus [8]
  Pressure: -6.8 mmHg
Oryctolagus cuniculus [9]
  Pressure: -6.2 mmHg
Carbonic anhydrase 2 [12]
  pIC50: 8.17

## NS(=O)(=O)c1nc2ccc(OC(=O)c3ccccc3)cc2s1
[1]
  Reaction: 50%
[2]
  half-life: 30 min
Carbonic anhydrase 2 [16]
  pIC50: 8.10
Oryctolagus cuniculus [10]
  K: 0.0152 h⁻¹
Oryctolagus cuniculus [11]
  K: 0.035 h⁻¹
Oryctolagus cuniculus [4]
  Change: -25%
Oryctolagus cuniculus [6]
  Change: 11%

## CCCCCC(=O)Oc1ccc2nc(S(N)(=O)=O)sc2c1
[2]
  half-life: 2 min
Oryctolagus cuniculus [10]
  K: 0.0182 h⁻¹
Oryctolagus cuniculus [11]
  K: 0.0152 h⁻¹
Carbonic anhydrase 2 [12]
  pIC50: 8.40

## CC(C)(C)OC(=O)Oc1ccc2nc(S(N)(=O)=O)sc2c1
Carbonic anhydrase 2 [12]
  pIC50: 8.00

## CC(C)(C)C(=O)Oc1ccc2nc(S(N)(=O)=O)sc2c1N
Carbonic anhydrase 2 [16]
  pIC50: 7.60

## Cn1cccc1C(=O)Oc1ccc2nc(S(N)(=O)=O)sc2c1
Oryctolagus cuniculus [4]
  Change: -12%
Carbonic anhydrase 2 [12]
  pIC50: 8.54

## CCCC(=O)Oc1ccc2sc(S(N)(=O)=O)nc2c1
Oryctolagus cuniculus [4]
  Change: -54%
Carbonic anhydrase 2 [12]
  pIC50: 8.40

## COc1cccc(OC)c1C(=O)Oc1ccc2nc(S(N)(=O)=O)sc2c1
Carbonic anhydrase 2 [12]
  pIC50: 8.40

## CC(=O)Oc1ccc2nc(S(N)(=O)=O)sc2c1
[2]
  half-life: 22 min
Oryctolagus cuniculus [10]
  K: 0.0217 h⁻¹
Oryctolagus cuniculus [11]
  K: 0.0165 h⁻¹
Oryctolagus cuniculus [3]
  Change: -10%
Oryctolagus cuniculus [4]
  Change: -47%
Oryctolagus cuniculus [5]
  Change: -35%
Oryctolagus cuniculus [6]
  Change: -42%
Oryctolagus cuniculus [8]
  Pressure: -8.8 mmHg
Carbonic anhydrase 2 [12]
  pIC50: 8.70

## CCCCCCCCCCCC(=O)Oc1ccc2nc(S(N)(=O)=O)sc2c1
Carbonic anhydrase 2 [16]
  pIC50: 8.51
Oryctolagus cuniculus [4]
  Change: -25%

## CN(C)Cc1ccc(C(=O)Oc2ccc3nc(S(N)(=O)=O)sc3c2)cc1
Carbonic anhydrase 2 [16]
  pIC50: 8.40

## CCOC(C)(C)C(=O)Oc1ccc2nc(S(N)(=O)=O)sc2c1
[2]
  half-life: 64 min
Oryctolagus cuniculus [10]
  K: 0.0162 h⁻¹
Oryctolagus cuniculus [11]
  K: 0.0373 h⁻¹
Carbonic anhydrase 2 [12]
  pIC50: 8.92

## CC(C)(C)C(=O)Nc1c(OC(=O)C(C)(C)C)ccc2nc(S(N)(=O)=O)sc12
Carbonic anhydrase 2 [12]
  pIC50: 7.49

## CCOC(=O)Oc1ccc2nc(S(N)(=O)=O)sc2c1
[2]
  half-life: 19 min
Oryctolagus cuniculus [10]
  K: 0.0145 h⁻¹
Oryctolagus cuniculus [11]
  K: 0.0402 h⁻¹
Oryctolagus cuniculus [17]
  Change: -29%
Oryctolagus cuniculus [18]
  Pressure: -5.5 mmHg
Carbonic anhydrase 2 [12]
  pIC50: 8.17

## CCOc1ccc2nc(S(N)(=O)=O)sc2c1 [ETHOXZOLAMIDE]
[1]
  Reaction: 36%

## NS(=O)(=O)c1nc2ccc(OC(=O)Cc3ccc(Cl)cc3)cc2s1
Carbonic anhydrase 2 [16]
  pIC50: 8.00

## NS(=O)(=O)c1nc2cc(O)ccc2s1
Carbonic anhydrase 2 [12]
  pIC50: 8.30

## CCCCCCCC(=O)Oc1ccc2nc(S(N)(=O)=O)sc2c1
Carbonic anhydrase 2 [16]
  pIC50: 8.80
Oryctolagus cuniculus [4]
  Change: -33%
Oryctolagus cuniculus [5]
  Change: -16%
Oryctolagus cuniculus [6]
  Change: -29%
Oryctolagus cuniculus [8]
  Pressure: -5 mmHg

## CN(C)C(=O)Oc1ccc2nc(S(N)(=O)=O)sc2c1
Oryctolagus cuniculus [4]
  Change: -32%
Oryctolagus cuniculus [6]
  Change: 2%
Carbonic anhydrase 2 [12]
  pIC50: 8.80

## NS(=O)(=O)c1nc2ccc(OC(=O)Cc3ccccc3)cc2s1
Carbonic anhydrase 2 [16]
  pIC50: 7.52
Oryctolagus cuniculus [4]
  Change: -48%
Oryctolagus cuniculus [5]
  Change: 13%
Oryctolagus cuniculus [6]
  Change: 4%
Oryctolagus cuniculus [7]
  Pressure: -2.5 mmHg
Oryctolagus cuniculus [8]
  Pressure: -6.8 mmHg

## CCN(CC)CC1CCC(C(=O)Oc2ccc3nc(S(N)(=O)=O)sc3c2)CC1 (configuration not stated)
Carbonic anhydrase 2 [12]
  pIC50: 8.55

## NS(=O)(=O)c1nc2ccc(OC(=O)C3CCCCC3)cc2s1
[1]
  Reaction: 50%
[2]
  half-life: 2 min
Oryctolagus cuniculus [10]
  K: 0.0175 h⁻¹
Oryctolagus cuniculus [11]
  K: 0.0712 h⁻¹
Oryctolagus cuniculus [4]
  Change: -34%
Oryctolagus cuniculus [7]
  Pressure: -4.6 mmHg
Oryctolagus cuniculus [8]
  Pressure: -9.8 mmHg
Carbonic anhydrase 2 [12]
  pIC50: 8.22

## NS(=O)(=O)c1nc2ccc(O)cc2s1
[1]
  Reaction: 27%

## CC(=O)Nc1nnc(S(N)(=O)=O)s1 [ACETAZOLAMIDE]
[1]
  Reaction: 3%

## CN(C)c1ccc(C(=O)Oc2ccc3nc(S(N)(=O)=O)sc3c2)cc1
Carbonic anhydrase 2 [16]
  pIC50: 7.22
Oryctolagus cuniculus [4]
  Change: 7%

## NS(=O)(=O)c1nc2ccc(OC(=O)/C=C/c3ccccc3)cc2s1
Carbonic anhydrase 2 [16]
  pIC50: 7.82

## CC(=O)/N=c1/sc(S(N)(=O)=O)nn1C [METHAZOLAMIDE]
[1]
  Reaction: 27%
Oryctolagus cuniculus [11]
  K: 0.0041 h⁻¹

## CCOCCOCCOC(C)(C)C(=O)Oc1ccc2nc(S(N)(=O)=O)sc2c1
Oryctolagus cuniculus [4]
  Change: -22%
Oryctolagus cuniculus [5]
  Change: -21%
Oryctolagus cuniculus [8]
  Pressure: -9 mmHg
Carbonic anhydrase 2 [12]
  pIC50: 8.49

## CCOP(=O)(OCC)Oc1ccc2nc(S(N)(=O)=O)sc2c1
Oryctolagus cuniculus [4]
  Change: -22%
Carbonic anhydrase 2 [12]
  pIC50: 8.74
